Several values for one entry are separate records, joined by “and”; a condition that tells them apart may be missing. Equal entries are not always repeated. Where two headings read alike, the source gives them in different places. Non-standard residues stand in square brackets, D forms with d. Residues, ends and D or L forms follow the SMILES beside them. *: point of attachment. Gly(N(CH2)2(3-indolyl)) = O=C(O)CNCCc1c[nH]c2ccccc12; Gly(Nα-4-Cl-benzyl) = O=C(O)CNCc1ccc(Cl)cc1; N(4-Br-benzyl)Gly = O=C(O)CNCc1ccc(Br)cc1; N(tridecyl)Gly = CCCCCCCCCCCCCNCC(=O)O; N(4-F-Bzl)Gly = O=C(O)CNCc1ccc(F)cc1; NBzl(4-I)Gly = O=C(O)CNCc1ccc(I)cc1; Gly(N-2-aminoethyl) = NCCNCC(=O)O; NFurfurylGly = O=C(O)CNCc1ccco1; X1 = CCCCCCCCN(CCCCCCCC)CC(=O)*; Gly(N-cHex) = O=C(O)CNC1CCCCC1; X2 = CCCCCCN(CCCCCC)CC(=O)*; Nphe = O=C(O)CNCc1ccccc1; Nlys = NCCCCNCC(=O)O
Key:
C. neoformans [1] = assay: MIC determination, broth microdilution; format: cell-based, Cryptococcus neoformans; details: RPMI-MOPS, 72 h at 35 °C, no visual growth, twofold dilutions 200–1.56 μg/mL, biological triplicate
C. neoformans [2] = details: RMG8-8 parameters from previously published results; cited from earlier work
[3] = test system: HepG2 hepatocellular carcinoma cells; details: human liver cells; RMG8-8 parameters from previously published results; cited from earlier work
[4] = calculated distribution coefficient at pH 7.4; RMG8-8 parameters from previously published results; cited from earlier work
C. albicans = details: cited from earlier work
fungi = details: killed fungi rapidly; cited from earlier work
[5] = result in words; cited from earlier work

Row | Structure (SMILES) | C. neoformans MIC (C. neoformans [1]) | other results
1 | CCCCCCCCCCCCCNCC(=O)N(CC(=O)N(CCCCN)CC(=O)N(CCN)CC(=O)N(CC(N)=O)Cc1ccco1)Cc1ccco1 [Compound 24] (H-[N(tridecyl)Gly][NFurfurylGly][Nlys][Gly(N-2-aminoethyl)][NFurfurylGly]-NH2) | 3.13 to 6.25 µg/mL | –
2 | CCCCCCCCCCCCCNCC(=O)N(CC(=O)N(CCCCN)CC(=O)N(CCCCN)CC(=O)N(CC(N)=O)C1CCCCC1)C1CCCCC1 [Compound 2] (H-[N(tridecyl)Gly][Gly(N-cHex)][Nlys][Nlys][Gly(N-cHex)]-NH2) | 3.13 µg/mL | –
3 | CCCCCCCCCCCCCNCC(=O)N(CC(=O)N(CCCCN)CC(=O)N(CCN)CC(=O)N(CC(N)=O)C1CCCCC1)C1CCCCC1 [RMG8-8] (H-[N(tridecyl)Gly][Gly(N-cHex)][Nlys][Gly(N-2-aminoethyl)][Gly(N-cHex)]-NH2) | – | C. neoformans MIC (C. neoformans [2]): 1.56 µg/mL; HepG2 TD50 [3]: 189 µg/mL and 189 ± 43 µg/mL; cLogD7.4 [4]: –2.38; C. albicans MIC (C. albicans): 25 µg/mL; t1/2 of fungal killing (fungi): 6.5 min; proteolytic stability [5]: proteolytically stable
4 | CCCCCCCCCCCCCNCC(=O)N(CC(=O)N(CCCCN)CC(=O)N(CCN)CC(=O)N(CC(N)=O)Cc1ccc(I)cc1)Cc1ccc(I)cc1 [Compound 20] (H-[N(tridecyl)Gly][NBzl(4-I)Gly][Nlys][Gly(N-2-aminoethyl)][NBzl(4-I)Gly]-NH2) | 6.25 µg/mL | –
5 | CCCCCCCCCCCCCNCC(=O)N(CCc1c[nH]c2ccccc12)CC(=O)N(CCCCN)CC(=O)N(CCN)CC(=O)N(CCc1c[nH]c2ccccc12)CC(N)=O [Compound 23] (H-[N(tridecyl)Gly][Gly(N(CH2)2(3-indolyl))][Nlys][Gly(N-2-aminoethyl)][Gly(N(CH2)2(3-indolyl))]-NH2) | 1.56 to 3.13 µg/mL | –
6 | CCCCCCCCCCCCCNCC(=O)N(CC(=O)N(CCCC[N+](C)(C)C)CC(=O)N(CC[N+](C)(C)C)CC(=O)N(CC(N)=O)C1CCCCC1)C1CCCCC1 [Compound 1] | 12.5 µg/mL | –
7 | CCCCCCCCCCCCCNCC(=O)N(CC(=O)N(CCCCN)CC(=O)N(CCN)CC(=O)N(CC(N)=O)Cc1ccc(F)cc1)Cc1ccc(F)cc1 [Compound 17] (H-[N(tridecyl)Gly][N(4-F-Bzl)Gly][Nlys][Gly(N-2-aminoethyl)][N(4-F-Bzl)Gly]-NH2) | 1.56 to 3.13 µg/mL | –
8 | CCCCCCCCCCCCCNCC(=O)N(CC(=O)N(CCCCN)CC(=O)N(CCN)CC(=O)N(CC(N)=O)Cc1ccccc1)Cc1ccccc1 [Compound 15] (H-[N(tridecyl)Gly][Nphe][Nlys][Gly(N-2-aminoethyl)][Nphe]-NH2) | 1.56 to 3.13 µg/mL | –
9 | CCCCCCN(CCCCCC)CC(=O)N(CC(=O)N(CCCCN)CC(=O)N(CCN)CC(=O)N(CC(N)=O)C1CCCCC1)C1CCCCC1 [Compound 6] (X2-[Gly(N-cHex)][Nlys][Gly(N-2-aminoethyl)][Gly(N-cHex)]-NH2) | 100 µg/mL | –
10 | CCCCCCCCN(CCCCCCCC)CC(=O)N(CC(=O)N(CCCCN)CC(=O)N(CCN)CC(=O)N(CC(N)=O)C1CCCCC1)C1CCCCC1 [Compound 7] (X1-[Gly(N-cHex)][Nlys][Gly(N-2-aminoethyl)][Gly(N-cHex)]-NH2) | 6.25 µg/mL | –
11 | CCCCCCCCCCCCCNCC(=O)N(CC(=O)N(CCCCN)CC(=O)N(CCN)CC(=O)N(CC(N)=O)Cc1ccc(Cl)cc1)Cc1ccc(Cl)cc1 [Compound 18] (H-[N(tridecyl)Gly][Gly(Nα-4-Cl-benzyl)][Nlys][Gly(N-2-aminoethyl)][Gly(Nα-4-Cl-benzyl)]-NH2) | 3.13 µg/mL | –
12 | CCCCCCCCCCCCCNCC(=O)N(CC(=O)N(CCCCN)CC(=O)N(CCN)CC(=O)N(CC(N)=O)Cc1ccc(Br)cc1)Cc1ccc(Br)cc1 [Compound 19] (H-[N(tridecyl)Gly][N(4-Br-benzyl)Gly][Nlys][Gly(N-2-aminoethyl)][N(4-Br-benzyl)Gly]-NH2) | 3.13 µg/mL | –

— article PMC9583092 (ACS Omega, 2022)
